Measurements as given in patent publication US11278563B2, “Rapid release pharmaceutical formulations containing algal cellulose” (priority 2016, dated 2022).
One block for each compound: values may come before it.

How the values were obtained:
[1] = DSC melting enthalpy and degree of crystallinity of FFA in cellulose mixtures; type: physicochemical; conditions: degree of crystallinity of FFA from DSC melting enthalpy, about 10 wt % FFA, n = 3
Method: Thermal analysis was performed with TA instrument (Model Q-2000) on both cellulose-drug mixtures and pure substances. Samples were placed inside hermetically sealed aluminium crucibles with punctured lids, in order to avoid overpressure caused by water evaporation. An empty pan was used as a reference. The analysis was conducted in the temperature range from −40° C. to 150° C. with a heating rate of 10° C. min^−1. N2 gas, at a flow of 50 mL min^−1, was applied during analysis. Initially the samples were cooled from room temperature to −40° C., then heated to 150° C. and finally cooled to 25° C. again. All of the samples were stored at ambient conditions for 24 hours prior to DSC measurements. For the heated cellulose-FFA mixtures the heating conditions were 120° C. for 2 hours.
The measurements were performed in triplicate, and the estimated amount of drug in the mixtures was 10 wt %.

[2] = Degree of drug crystallinity from weight normalized melting enthalpies (TGA heat flow); type: physicochemical
Method: TGA was conducted on a Mettler TG50 apparatus (10 K min^−1; 35° C. to 20° C. above the melting point of the drug) on 10-20 mg samples in aluminium crucibles under a nitrogen atmosphere (60 mL min^−1). Both normal and heated 10% mixtures were analysed and compared to the pure crystalline substance of corresponding drug content, i.e. 1-2 mg. The temperature in the furnace was continuously monitored, and the heat flow curves were collected both for heating and cooling phase to record melting or re-crystallization events.
The weight normalized enthalpies of melting observed in cellulose-drug mixtures were calculated using the STARe Excellence software (Mettler Toledo) and compared to the weight normalized enthalpy for the pure crystalline drug, to give a rough estimate of the degree of the drug crystallinity (“Crl”) as follows.
[formula] where ΔHmelt is weight normalised melting enthalpy of the drug in a specific cellulose-drug blend [in Joules/g] and ΔHdrug is the melting enthalpy of a pure crystalline drug [in Joules/g]. X-Ray Diffraction (XRD)

CrlFFA.% [1]: 100%
SMILES: O=C(O)c1ccccc1Nc1cccc(C(F)(F)F)c1 [FFA, flufenamic acid]

CrlNAP (%) ([2]; melting event): 100% | CrlNAP (%) ([2]; recrystallisation event of pure NAP (NAP recryst.)): 76%
SMILES: COc1ccc2cc([C@H](C)C(=O)O)ccc2c1 [NAP, naproxen]

CrlPRO (%) ([2]; melting event): 100%
SMILES: CC(=O)[C@H]1CC[C@H]2[C@@H]3CCC4=CC(=O)CC[C@]4(C)[C@H]3CC[C@]12C [PRO, progesterone]
